Results from US20150239864A1, “3H-1,2-DITHIOCYCLOPENTENE-3-THIOKETONE COMPOUNDS AND APPLICATION THEREOF” (Soochow University, priority 2012, published 2015).

Columns and labels:
[1] = system: HT22 cells; test: Glutamate-induced neural oxidative stress injury model in HT22 cells, survival by MTT; type: cell-based, Mouse; settings: 5 mM glutamate added with compound at 1, 10, 50 or 100 μM, MTT after 24 h
Procedure: Mouse Hippocampal neuron cell line HT22, 24-well culture plate (Corning), glutamic acid (Glutamate, Sigma), DMEM culture medium (GIBCO), fetal bovine serum (GIBCO), 3-(4,5-dimethylthiazol-2-yl)-2,5-diphenyltetrazolium bromide (MTT, Sigma), dimethyl sulfoxide (Sinopharm Group. Co. Ltd.), and microplate reader (TECAN).
2.1. Cell culture: HT22 cells were taken out of the liquid nitrogen container, and thawed quickly in a water-bath at 37° C. After that, the outside wall of cryopreservation tube was disinfected by alcohol wipes, and it was then placed in a clean bench. The cells were transferred to a centrifuge tube containing 10 ml medium and centrifuged at 1000 rpm for 3 min. After centrifugation, the supernatant was discarded, and 10 mL DMEM containing 10% FBS was added to the centrifuge tube. The mixture was vigorously pipetted to prepare a cell suspension. The cell suspension was inoculated to a 100×20 mm Petri dish. Cells were cultured at 37° C. and 5% CO2. When the cell density reached confluent, the cells were digested and seeded onto the wells of a 24-well plate at the density of 2×10^4/well.
2.2. Treatment and groups: after the cells were cultured in the 24-well plate for 24 hours, 5 mM glutamate was added together with the compound each synthesized in Example 1-10 or Example 13 at a final concentration of 1, 10, 50, or 100 μM. DMSO served as vehicle and was added to the cells of the control group at an equal volume. The viability of the cells was detected by MTT method 24 h after the treatment.
2.3. Detection by MTT: 50 μL, 0.5 mg/ml MTT was added to each well 24 h after the treatment of cells. The cells were further incubated at 37° C. and 5% CO2 for 4 h. Subsequently, the supernatant was discarded. The cells were lysed by adding 500 μL dimethyl sulfoxide (DMSO). The absorbance was detected at 570 nm by a microplate reader, which is positively correlated with survival rate of cells. The survival rate of the cells in the treatment groups was expressed as the percent of the survival rate of the cells without glutamate treatment. All data were expressed as mean±standard deviation (SD). Statistical analysis was carried out for all data using SPSS 17.0. The difference between the groups was tested by one way anova. P<0.01 was considered as very significant difference.

[2] = system: microglia cell line BV2; test: LPS-induced inflammatory response of microglia, nitrite by Griess reagent; type: cell-based; settings: 200 ng/mL LPS, 24 h, compound at 10-100 μM, vs LPS alone, p<0.01
Procedure: Brain microglia cell line BV-2, 96-well culture plate (Corning, USA), DMEM medium (Hyclone, USA), fetal bovine serum (FBS) (GIBCO, USA), dimethyl sulfoxide (DMSO) (SIGMA, USA), Griess reagent (SIGMA, USA), sodium nitrite (ChemNet, China), microplate reader (BIO-RAD, USA)
2.1. Cell cultures: After taken out of the liquid nitrogen container, BV-2 cells were quickly placed in warm water at 37° C. and gently shaken for thawing. Subsequently, it was centrifuged at 1000 rpm for 3 min, and the supernatant was discarded. […] When 60%-70% of confluence of the passaged cells was achieved, the cells were harvested by centrifugation at 1000 rpm for 3 min. The cells were then stained by trypan blue and counted under a microscope by globulimeter. After cell counting, it was diluted into a suspension containing 150 to 200 thousand of cells/ml, which was then plated in the 96-well plate (15 to 20 thousand of […]).
2.2. Treatment and groups: after the cells were cultured in the […] for 24 h, 200 ng/mL LPS was added together with compound YC1-1 of Example 1, YC1-8 of Example 8 and YC2-2 of Example 12 at a final concentration of 1, 10, 50, or 100 μM. DMSO served as vehicle and was added to the cells of control group at the equal volume. The cells were further incubated in an incubator.
2.3. The amount of nitrite produced was detected 24 h after the atreatment, to characterize the inflammatory response of BV2 cells induced by LPS and the inhibitory effect of compound YC1-1 of Example 1 and compound YC1-8 of Example 8 on the LPS-induced inflammatory response.
Detection method of nitrite: […], supernatant was taken out of the wells of 96-well plate, and added to the corresponding wells of another clean 96-well plate. Subsequently, 50 μL Griess reagent was added to each well, and the OD value was detected at 570 nm. The amount of nitrite was calculated based on the standard curve. The result was expressed as the relative yield of nitrite, wherein the relative yield of the control group treated only by LPS was designated as 1. All data were expressed as mean±standard deviation (SD). […]

[3] = system: mouse middle cerebral artery occlusion model; test: Mouse middle cerebral artery occlusion (MCAO) model, infarct volume by TTC staining; type: in vivo; settings: half at 3 h and half at 10 h of reperfusion, 24 h after MCAO, vs vehicle, p<0.05
Procedure: Male ICR mice (body weight of 30±2.0 g) were purchased from Shanghai Laboratory Animal Center, Chinese Academy of Sciences. The mice were raised at room temperature and 12 h cycle of light and dark, with free access to food and water.
2.1. Middle cerebral artery occlusion (MCAO) model: the middle cerebral artery occlusion (MCAO) model was performed by reference to Longa's method or other modified suture-occluded method. The specific experimental procedures were as follows: after anaesthetized by isoflurane, the mouse was fixed in supine position, and the skin of neck and head was sterilized using iodine. The probe of laser-Doppler blood flowmeter was fixed at the midpoint of the line between the ear and the eye on the right side of the mouse to monitor the real-time perfusion in the cerebral cortex. A 1.5 cm incision was made in the middle of the neck to expose common carotid artery on the right side. Tissues were separated under an operating microscope layer by layer. The common carotid artery was first separated which was temporarily ligated 0.5 cm away from the distal end using 5-0 suture. Then, the external carotid artery and internal carotid artery on the right side were subsequently separated and the external carotid artery was ligated 0.5 cm away from the distal end using 5-0 suture. At the same time, the internal carotid artery was temporarily clamped using a mini vascular clamp. Subsequently, a small incision was made by an ophthalmic scissor on the inner side of the ligation at the distal end of the external carotid artery. To occlude the […], one of the ends of the suture was slightly enlarged by heating, coated by silica gel, and sterilized using alcohol. The length of the suture was about 2 cm, and the diameter of the enlarged end was […]. The suture was held using a fine forceps and inserted into the incision on the external carotid artery.). Once the suture passed through the incision of the external carotid artery, the ligation was lifted at the distal end of external carotid artery until the enlarged end of the suture entered the bifurcation of the […]. The suture was then tightened, and the vascular clamp on the internal carotid artery was opened. […] The starting time for occlusion was recorded. For reperfusion, the suture was withdrawn 60 min after middle cerebral artery occlusion. The rectal temperature was maintained at 37.0±0.5° C. by a heating blanket during and after the surgery, until the animal was revived.
2.2 Animal groups and drug administration: the animals were randomly divided into 3 groups, including control group treated with vehicle, YC1-8 group (100 mg/kg) and YC1-8 group (50 mg/kg). There were 8 mice in each group. 12 mg YC1-8 was initially dissolved by 80 μL DMSO, and then diluted by 920 μL corn oil to prepare a solution with the final concentration of 12 mg/mL. One half of dosage of compound YC1-8 was initially administrated at 3 h of reperfusion after ischemia by intraperitoneal injection, while the other half of dosage was administrated at 10 h of reperfusion after ischemia. For the control group, the same volume of DMSO-containing corn oil was administrated to the mice at 3 h and 10 h.
2.3. Detection of the cerebral infarct volumes: 24 h after reperfusion following mouse middle cerebral artery occlusion (MCAO), the mice were sacrificed under anesthetized and the brain was collected. After the brain tissue was stripped off, the olfactory bulb and cerebellum were removed. A series of 5 coronary sections of brain were made at an interval of 1 mm, which were then placed in 2% TTC solution at 37° C. under darkness in a warm bath. The sections were turned over every 15 min, with a total duration of 30 min. The size of cerebral infarction was determined by TTC staining method. Due to the reduction of TTC by […] in mitochondrion, normal brain tissue was red, and the ischemic infarct area was white. […]

SMILES | Concentration range for protection [1] | further results
Oc1ccc(-c2cc(=S)ss2)cc1 [YC1-1, 5-p-hydroxyphenyl-3H-1,2-dithiacyclopentene-3-thione] | 10 to 100 µM | LPS induced inflammatory response of BV2 cells (nitrite production) [2]: significantly inhibited
Fc1ccc(-c2cc(=S)ss2)cc1 [YC1-2, 5-p-fluorophenyl-3H-1,2-dithiacyclopentene-3-thione] | 10 to 100 µM | 
S=c1cc(-c2cccs2)ss1 [YC1-3, 5-(2-thienyl)-3H-1,2-dithiacyclopentene-3-thione] | 10 to 100 µM | 
Cc1ccc(-c2cc(=S)ss2)cc1 [YC1-4, 5-p-methylphenyl-3H-1,2-dithiacyclopentene-3-thione] | 10 to 100 µM | 
Fc1cc(-c2cc(=S)ss2)c(Cl)cc1Cl [YC1-5, 5-(2,4-dichloro-5-fluorophenyl)-3H-1,2-dithiacyclopentene-3-thione] | 1 to 100 µM | 
S=c1cc(-c2ccc3c(c2)OCO3)ss1 [YC1-6, 5-(3,4-methylenedioxyphenyl)-3H-1,2-dithiacyclopentene-3-thione] | 1 to 100 µM | 
COc1ccc(-c2cc(=S)ss2)c(OC)c1 [YC1-7, 5-(2,4-dimethoxyphenyl)-3H-1,2-dithiacyclopentene-3-thione] | 1 to 100 µM | 
COc1ccc(-c2cc(=S)ss2)cc1 [YC1-8, 5-p-methoxyphenyl-3H-1,2-dithiacyclopentene-3-thione] | 10 to 100 µM | infarction volume in cerebral cortex ([3]; 50 mg/kg YC1-8 i.p.): significantly reduced; infarction volume in hemisphere ([3]; 50 mg/kg YC1-8 i.p.): significantly reduced; infarction volume in striatum ([3]; 50 mg/kg YC1-8 i.p.): significantly reduced; infarction volume in cerebral cortex ([3]; 100 mg/kg YC1-8 i.p.): significantly reduced; infarction volume in hemisphere ([3]; 100 mg/kg YC1-8 i.p.): significantly reduced; infarction volume in striatum ([3]; 100 mg/kg YC1-8 i.p.): significantly reduced; LPS induced inflammatory response of BV2 cells (nitrite production) [2]: significantly inhibited
S=c1cc(-c2ccccc2)ss1 [YC1-9, 5-phenyl-3H-1,2-dithiacyclopentene-3-thione] | 1 to 100 µM | 
S=c1cc(-c2ccc3ccccc3c2)ss1 [YC1-10, 5-(2-naphthyl)-3H-1,2-dithiacyclopentene-3-thione] | 1 to 100 µM | 
CC(=O)Oc1ccccc1C(=O)Oc1ccc(-c2cc(=S)ss2)cc1 [YC2-2, 4-(3H-1,2-dithio-3-thioketone-5-yl)phenyl 2-acetoxy benzoate] |  | LPS induced inflammatory response of BV2 cells (nitrite production) [2]: significantly inhibited
O=C(Oc1ccc(-c2cc(=S)ss2)cc1)c1cccnc1 [YC2-3, 4-(3H-1,2-dithio-3-thioketone-5-yl)phenyl pyridine-3-carboxylate] | 50 to 100 µM | 
